From patent US10428083B2, “Heterocyclylmethyl-thienouracile as antagonists of the adenosine-A2B-receptor” (BAYER PHARMA AKTIENGESELLSCHAFT, priority 2015, dated 2019)

Target: human adenosine A2b receptor (Homo sapiens (Human), UniProt P29275)
Assay: Cellular in vitro reporter gene test for A2b receptor activity (CHO-K1, CRE-luciferase, NECA stimulation)
Assay type: cell-based
Conditions: recombinant CHO-K1 cell line, CRE-luciferase reporter, antagonism of EC50 concentration of NECA; in some cases means of several determinations, rounded to two significant figures; read-out: A2b receptor IC50
Summary of the method: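 CHO-K1 cells with CRE-driven luciferase; antagonists co-incubated with NECA at its EC50, determined in a pre-experiment on each test day. Luciferase read by luminescence 3 h after NECA addition.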

human adenosine A2b receptor, sequence (P29275 whole entry): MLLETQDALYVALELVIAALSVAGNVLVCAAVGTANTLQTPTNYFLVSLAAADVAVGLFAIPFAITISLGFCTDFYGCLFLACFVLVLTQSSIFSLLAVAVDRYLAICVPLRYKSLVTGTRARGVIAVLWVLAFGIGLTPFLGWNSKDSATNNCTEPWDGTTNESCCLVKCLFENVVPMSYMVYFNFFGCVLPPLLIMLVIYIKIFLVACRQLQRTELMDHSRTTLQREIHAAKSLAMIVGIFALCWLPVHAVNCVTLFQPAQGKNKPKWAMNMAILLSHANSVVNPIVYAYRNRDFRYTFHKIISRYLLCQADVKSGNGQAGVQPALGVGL

| Structure (SMILES) | IC50 |
| --- | --- |
| COC(=O)N=C1NCCN1Cc1sc2c(c1C)c(=O)n(CC(F)(F)F)c(=O)n2CC1CCO1 (racemic) [Example 383, Methyl [1-{[5-methyl-1-(oxetan-2-ylmethyl)-2,4-dioxo-3-(2,2,2-trifluoroethyl)-1,2,3,4-tetrahydrothieno[2,3-d]pyrimidin-6-yl]methyl}imidazolidin-2-ylidene]carbamate] | 0.015 µM |
| CCOCCn1c(=O)c2c(C)c(CN3CCNC3=S)sc2n(CCCF)c1=O [Example 405, 3-(2-Ethoxyethyl)-1-(3-fluoropropyl)-5-methyl-6-[(2-thioxoimidazolidin-1-yl)methyl]thieno[2,3-d]pyrimidine-2,4(1H,3H)-dione] | 0.03 µM |
| COCCn1c(=O)n(CC(C)(C)C)c(=O)c2c(C)c(CN3CCNC(=O)C3=O)sc21 [Example 274, 3-(2,2-Dimethylpropyl)-6-[(2,3-dioxopiperazin-1-yl)methyl]-1-(2-methoxyethyl)-5-methylthieno[2,3-d]pyrimidine-2,4(1H,3H)-dione] | 0.024 µM |
| Cc1c(Cn2nc[nH]c2=O)sc2c1c(=O)n(C(C)C)c(=O)n2CC1CCCO1 (single isomer, unassigned) [Example 426, 3-Isopropyl-5-methyl-6-[(5-oxo-4,5-dihydro-1H-1,2,4-triazol-1-yl)methyl]-1-(tetrahydrofuran-2-ylmethyl)thieno[2,3-d]pyrimidine-2,4(1H,3H)-dione] | 0.27 µM |
| Cc1c(Cn2nc[nH]c2=O)sc2c1c(=O)n(CC(C)(C)C)c(=O)n2CC1CCCO1 (single isomer, unassigned) [Example 431, 3-(2,2-Dimethylpropyl)-5-methyl-6-[(5-oxo-4,5-dihydro-1H-1,2,4-triazol-1-yl)methyl]-1-(tetrahydrofuran-2-ylmethyl)thieno[2,3-d]pyrimidine-2,4(1H,3H)-dione] | 0.74 µM |
| COCCn1c(=O)n(CC(C)C)c(=O)c2c(C)c(CN3CCN(C=O)C3=S)sc21 [Example 46, 3-{[3-Isobutyl-1-(2-methoxyethyl)-5-methyl-2,4-dioxo-1,2,3,4-tetrahydrothieno[2,3-d]pyrimidin-6-yl]methyl}-2-thioxoimidazolidine-1-carbaldehyde] | 0.029 µM |
| CCn1c(=O)c2c(C)c(CN3CCNC3=O)sc2n(CC2CCO2)c1=O (racemic) [Example 65, 3-Ethyl-5-methyl-1-(oxetan-2-ylmethyl)-6-[(2-oxoimidazolidin-1-yl)methyl]thieno[2,3-d]pyrimidine-2,4(1H,3H)-dione (racemate)] | 0.012 µM |
| COCCn1c(=O)c2c(C)c(CN3CCNC3=O)sc2n(CCOC)c1=O [Example 231, 1,3-Bis(2-methoxyethyl)-5-methyl-6-[(2-oxoimidazolidin-1-yl)methyl]thieno[2,3-d]pyrimidine-2,4(1H,3H)-dione] | 0.021 µM |
| COCCn1c(=O)n(CCc2ccccc2)c(=O)c2c(C)c(CN3CCOCC3=O)sc21 [Example 13, 1-(2-Methoxyethyl)-5-methyl-6-[(3-oxomorpholin-4-yl)methyl]-3-(2-phenylethyl)thieno[2,3-d]pyrimidine-2,4(1H,3H)-dione] | 0.017 µM |
| CC#CCn1c(=O)c2c(C)c(CN3CCNC3=O)sc2n(CCOC)c1=O [Example 317, 3-(But-2-yn-1-yl)-1-(2-methoxyethyl)-5-methyl-6-[(2-oxoimidazolidin-1-yl)methyl]thieno[2,3-d]pyrimidine-2,4(1H,3H)-dione] | 0.025 µM |
| COCCn1c(=O)n(C(C)C)c(=O)c2c(C)c(CN3CCNC(=O)C3=O)sc21 [Example 479, 6-[(2,3-Dioxopiperazin-1-yl)methyl]-3-isopropyl-1-(2-methoxyethyl)-5-methylthieno[2,3-d]pyrimidine-2,4(1H,3H)-dione] | 0.14 µM |
| CCn1c(=O)c2c(C)c(C(C)N3CCNC3=O)sc2n(CCC(F)(F)F)c1=O (single isomer, unassigned) [Example 503, 3-Ethyl-5-methyl-6-[1-(2-oxoimidazolidin-1-yl)ethyl]-1-(3,3,3-trifluoropropyl)thieno[2,3-d]pyrimidine-2,4(1H,3H)-dione] | 0.039 µM |
| CCn1c(=O)c2c(C)c(Cn3nc[nH]c3=O)sc2n(CF)c1=O [Example 352, 3-Ethyl-1-(fluoromethyl)-5-methyl-6-[(5-oxo-4,5-dihydro-1H-1,2,4-triazol-1-yl)methyl]thieno[2,3-d]pyrimidine-2,4(1H,3H)-dione] | 0.048 µM |
| CCn1c(=O)c2c(C)c(CN3CCNC3=O)sc2n(CCCOC)c1=O [Example 311, 3-Ethyl-1-(3-methoxypropyl)-5-methyl-6-[(2-oxoimidazolidin-1-yl)methyl]thieno[2,3-d]pyrimidine-2,4(1H,3H)-dione] | 0.031 µM |
| [2H]C([2H])(c1sc2c(c1C)c(=O)n([C@@H](C)C(F)(F)F)c(=O)n2CCOC)N1CCNC1=O [Example 502, 1-(2-Methoxyethyl)-5-methyl-6-[(2-oxoimidazolidin-1-yl)(dideutero)methyl]-3-[(2S)-1,1,1-trifluoropropan-2-yl]thieno[2,3-d]pyrimidine-2,4(1H,3H)-dione] | 0.018 µM |
| Cc1c(CN2CCNC2=S)sc2c1c(=O)n(CC(F)F)c(=O)n2CCCF [Example 42, 3-(2,2-Difluoroethyl)-1-(3-fluoropropyl)-5-methyl-6-[(2-thioxoimidazolidin-1-yl)methyl]thieno[2,3-d]pyrimidine-2,4(1H,3H)-dione] | 0.011 µM |
| COCCn1c(=O)n(C(C)C(F)(F)F)c(=O)c2c(C)c(CN3CCNC3=O)sc21 (single isomer, unassigned) [Example 499, 1-(2-Methoxyethyl)-5-methyl-6-[(2-oxoimidazolidin-1-yl)methyl]-3-(1,1,1-trifluoropropan-2-yl)thieno[2,3-d]pyrimidine-2,4(1H,3H)-dione] | 0.23 µM |
| Cc1c(CN2CCNC2=O)sc2c1c(=O)n(C(C)C)c(=O)n2CF [Example 313, 1-(Fluoromethyl)-3-isopropyl-5-methyl-6-[(2-oxoimidazolidin-1-yl)methyl]thieno[2,3-d]pyrimidine-2,4(1H,3H)-dione] | 0.041 µM |

Now those with a lower IC50, led by results:

| IC50 | Structure (SMILES) |
| --- | --- |
| 0.01 µM | CCn1c(=O)c2c(C)c(CN3CCNC3=S)sc2n(CC2CCO2)c1=O (racemic) [Example 34, 3-Ethyl-5-methyl-1-(oxetan-2-ylmethyl)-6-[(2-thioxoimidazolidin-1-yl)methyl]thieno[2,3-d]pyrimidine-2,4(1H,3H)-dione (racemate)] |
| 0.0099 µM | COCCn1c(=O)c2c(C)c(CN3CCNC(=O)C3=O)sc2n(CCC(F)(F)F)c1=O [Example 276, 6-[(2,3-Dioxopiperazin-1-yl)methyl]-3-(2-methoxyethyl)-5-methyl-1-(3,3,3-trifluoropropyl)thieno[2,3-d]pyrimidine-2,4(1H,3H)-dione] |
| 0.0098 µM | CCn1c(=O)c2c(C)c(CN3CCNC3=NC(=O)OC)sc2n(CC2CCO2)c1=O (racemic) [Example 371, Methyl [1-{[3-ethyl-5-methyl-1-(oxetan-2-ylmethyl)-2,4-dioxo-1,2,3,4-tetrahydrothieno[2,3-d]pyrimidin-6-yl]methyl}imidazolidin-2-ylidene]carbamate] |
| 0.0087 µM | COCCn1c(=O)n(CC(C)C)c(=O)c2c(C)c(CN3CCNC3=O)sc21 [Example 89, 3-Isobutyl-1-(2-methoxyethyl)-5-methyl-6-[(2-oxoimidazolidin-1-yl)methyl]thieno[2,3-d]pyrimidine-2,4(1H,3H)-dione] |
| 0.0081 µM | CCn1c(=O)c2c(C)c(CN3CCNC3=O)sc2n(CC2COC2)c1=O [Example 72, 3-Ethyl-5-methyl-1-(oxetan-3-ylmethyl)-6-[(2-oxoimidazolidin-1-yl)methyl]thieno[2,3-d]pyrimidine-2,4(1H,3H)-dione] |
| 0.008 µM | CCn1c(=O)c2c(C)c(CN3CCC(C)C3=O)sc2n(CCC(F)(F)F)c1=O (racemic) [Example 6, 3-Ethyl-5-methyl-6-[(3-methyl-2-oxopyrrolidin-1-yl)methyl]-1-(3,3,3-trifluoropropyl)thieno[2,3-d]pyrimidine-2,4(1H,3H)-dione (racemate)] |
| 0.006 µM | Cc1c(CN2CCNC2=S)sc2c1c(=O)n(CC(C)(C)C)c(=O)n2CCCF [Example 150, 3-(2,2-Dimethylpropyl)-1-(3-fluoropropyl)-5-methyl-6-[(2-thioxoimidazolidin-1-yl)methyl]thieno[2,3-d]pyrimidine-2,4(1H,3H)-dione] |
| 0.0057 µM | Cc1c(CN2CCNC2=S)sc2c1c(=O)n(CC(F)(F)F)c(=O)n2CC1CCO1 (single isomer, unassigned) [Example 156, 5-Methyl-1-(oxetan-2-ylmethyl)-6-[(2-thioxoimidazolidin-1-yl)methyl]-3-(2,2,2-trifluoroethyl)thieno[2,3-d]pyrimidine-2,4(1H,3H)-dione] |
| 0.0056 µM | CCn1c(=O)c2c(C)c(Cn3[nH]ccc3=O)sc2n(CCC(F)(F)F)c1=O [Example 127, 3-Ethyl-5-methyl-6-[(5-oxo-2,5-dihydro-1H-pyrazol-1-yl)methyl]-1-(3,3,3-trifluoropropyl)thieno[2,3-d]pyrimidine-2,4(1H,3H)-dione] |
| 0.0052 µM | Cc1c(CN2CCNC2=S)sc2c1c(=O)n(CC(F)F)c(=O)n2CC1CCCO1 (single isomer, unassigned) [Example 163, 3-(2,2-Difluoroethyl)-5-methyl-1-(tetrahydrofuran-2-ylmethyl)-6-[(2-thioxoimidazolidin-1-yl)methyl]thieno[2,3-d]pyrimidine-2,4(1H,3H)-dione] |
| 0.0027 µM | CCn1c(=O)c2c(C)c(CN3CCNC3=NC(=O)OC)sc2n(CCOC)c1=O (single isomer, unassigned) [Example 119, Methyl [1-{[3-ethyl-1-(2-methoxyethyl)-5-methyl-2,4-dioxo-1,2,3,4-tetrahydrothieno[2,3-d]pyrimidin-6-yl]methyl}imidazolidin-2-ylidene]carbamate] |
| 0.0014 µM | CCn1c(=O)c2c(C)c(CN3CCNC3=O)sc2n(CCC(F)(F)F)c1=O [Example 48, 3-Ethyl-5-methyl-6-[(2-oxoimidazolidin-1-yl)methyl]-1-(3,3,3-trifluoropropyl)thieno[2,3-d]pyrimidine-2,4(1H,3H)-dione] |
